{"source": "paper PMC11310889", "about": "“Ribosomal translation of fluorinated non-canonical amino acids for de novo biologically active fluorinated macrocyclic peptides” (Chemical Science, 2024)", "key": {"Gram-negative bacteria": {"system": "Gram-negative bacteria", "details": "cited from earlier work", "from_the_text": "Furthermore, conjugating the R9 peptide to antimicrobial peptides enhances antibacterial activity, particularly increasing effectiveness against Gram-negative bacteria.[49–51] ..."}, "E. coli W3110 [1]": {"system": "E. coli W3110", "test": "Propidium iodide (PI) assay of membrane permeability", "type": "cell-based, Escherichia coli", "details": "E. coli W3110 logarithmic-phase, 15 min treatment with 5 μM peptide, PI 25 μg/mL 15 min (Fig. 5A)", "experimental": "Propidium Iodide (PI) assay\nThaw the previously preserved E. coli W3110 cells from the -80 °C freezer. Scrape a small amount and inoculate it into 1 mL of LB liquid medium. Culture overnight in a 37°C shaker. Next day, inoculate the strain into fresh LB liquid medium at a 1:100 ratio and incubate at 37 °C until the OD600 reaches approximately 0.47 to 0.53. Take 100 μL of the E. coli W3110 cells and centrifuge for 2 min at 13,000 rpm. Discard the supernatant. For the untreated group, resuspend the cells in 100 μL of PBS. For the peptide treatment group, resuspend the cells in 99 μL of ddH2O and add 1 […]\nμL of 0.5 mM of the different peptides. Mix thoroughly and let react for 15 min. After the treatment, take 80 μL of each sample and incubate with PI at a final concentration of 25 μg/mL for 15 min.\nAfter incubation, wash the samples with the same amount of PBS, centrifuge, and resuspend at a 10-fold concentration. Observe the images using a Nikon Eclipse Ci-L Plus microscope. […]\nIncubate overnight in a 37°C shaker. […]\nCentrifuge again at\n6100g for 10 min, discard the supernatant, and add 500 μL of ddH2O containing 2.5% glutaraldehyde. Resuspend and fix the cells overnight at 4°C. Centrifuge at 6100g for 10 min, remove the supernatant, and wash twice with ddH2O, letting it stand for 15 min each time, followed by centrifugation at 6100g for 10 min. Discard the supernatant. Dehydrate the sample with ethanol at concentration gradients of 30%, 60%, and 90%, without resuspension, centrifuging at 6100g for […]"}, "E. coli W3110 [2]": {"system": "E. coli W3110", "test": "Scanning electron microscopy of cell morphology", "type": "cell-based, Escherichia coli", "details": "E. coli W3110 logarithmic-phase, 4 h treatment at 2 μM and 5 μM (Fig. 5B, S11)", "experimental": "Thaw the previously preserved E. coli W3110 cells from the -80 °C freezer. […]\nScanning electron microscopy\nThaw the previously preserved E. coli W3110 cells from the -80°C freezer. Scrape a small amount and inoculate it into 1 mL of LB liquid medium. Incubate overnight in a 37°C shaker. The next day, inoculate the strain into fresh LB liquid medium at a 1:100 ratio and incubate at 37°C until the OD600 reaches approximately 0.47 to 0.53. Take 500 μL of E. coli W3110 cells, centrifuge for 10 min at 4000 rpm, and discard the supernatant. Resuspend the cells in 500 μL of PBS, then centrifuge again at 4000 rpm for 10 min and discard the supernatant. Dissolve various macrocyclic peptides in DMSO and dilute to the required concentration. Resuspend the untreated group in 500 μL of PBS.\nFor the peptide treatment group, resuspend in 495 μL of ddH2O, add 5 μL of 0.2 mM or 0.5 mM peptides, mix well, and let react for 4 h.\nAfter the treament, spot 4 μL of the sample on plates. Perform the first ten-fold dilution and mix, then continue with the second to fifth ten-fold dilutions. Incubate the plates inverted overnight in a 37°C incubator. Scan and count the colonies. For the remaining 492 μL, centrifuge at 6100g for 10 min, discard the supernatant, add 500 μL of ddH2O, and let it stand for 15 min. Centrifuge again at 6100g for 10 min, discard the supernatant, and add 500 μL of ddH2O containing 2.5% glutaraldehyde. Resuspend and fix the cells overnight at 4°C. Centrifuge at 6100g for 10 min, remove the supernatant, and wash twice with ddH2O, letting it stand for 15 min each time, followed by centrifugation at 6100g for 10 min. Discard the supernatant. Dehydrate the sample with ethanol at concentration gradients of 30%, 60%, and 90%, without resuspension, centrifuging at 6100g for […]\n10 min and discarding the supernatant after each step. Finally, use 100% ethanol, rest for 15 min, centrifuge at 6100g for 10 min, discard the supernatant, and repeat with 100% ethanol, leaving about 10 μL. Then the critical point was dried and sprayed with gold, and the images were observed by […]\nPrediction of binding sites between peptides and the BAM complex\nFirstly, the fpocket algorithm was used, a rapid method for pocket prediction based on the three-dimensional structure of BAM complex (PDB ID: 5AYW). This method establishes a grid surrounding the protein, positioning alpha spheres on grid points devoid of spatial conflicts with protein atoms, subsequently utilizing a clustering algorithm to ascertain whether these regions constitute potential binding pockets. Alpha spheres were designated with radii ranging from 3.4Å to 6.2Å, with a prerequisite of at least 15 alpha spheres for a region to be considered a pocket. […]\nPepNN evaluated each amino acid for its potentiality as a peptide binding site. […]"}}, "data": [{"substance": "nona-arginine [R9, reference compound]", "values": [{"measurement": "anti-Gram-negative bacterial activity", "setting": "Gram-negative bacteria", "value": "low anti-Gram-negative bacterial activity"}, {"measurement": "PI red fluorescence (cell membrane permeability)", "setting": "E. coli W3110 [1]", "value": "weak red fluorescence"}, {"measurement": "morphological changes by scanning electron microscopy", "setting": "E. coli W3110 [2]", "value": "slight shrinkage and partial rupture"}]}]}
